Assay results taken from patent US4886807A, “Novel pyrimidopyrimidine derivative, process for producing it and pharmaceutical composition” (Nippon Zoki Pharmaceutical Co., Ltd., priority 1988, dated 1989).

Assays:
[1] = tested on: PCA (passive cutaneous anaphylaxis) reaction; assay: Anti-allergic effect: PCA (passive cutaneous anaphylaxis) reaction in rats; assay type: in vivo, rats (Wister-strain, male); conditions: oral, 1 hour before challenge; for Leak of Dye: control 10.7 ± 1.0; for inhibition in vivo at 100 mg/kg / inhibition in vivo at 20 mg/kg / inhibition in vivo at 50 mg/kg: Rattus norvegicus, inhibition of dye leakage
Method: PCA (passive cutaneous anaphylaxis) reaction in rats was taken as an index to an anti-allergic effect of the compound of the present invention.
In order to perform sensitization, anti-DNP-Asc (dinitrophenylated Ascaris extracts) serum diluted with saline was injected intradermally at 4 sites on the shaved back of groups of 10 Wister-strain male rats (6 weeks of age). 1 hour after oral administration of the test drug, the mixture of equivalent amounts of DNP-Asc (5 mg/ml) and 2% Evans blue were intravenously injected to generate PCA reaction. 30 minutes thereafter, rats were killed by decapitation and exsanguinated. The skin was opened in order to evaluate the leakage of blue dye. The obtained skin was dissolved in 2N potassium hydroxide, then 2N phosphoric acid and acetone were added thereto. The amount of dye was determined by measurement of absorbance at 620 nm after centrifugation.

Acute toxicity test = conditions: mouse, in vivo, mice, mortality for 7 days after administration, probit method
Method: The test compounds were administered to groups of 10 ddy-strain male mice (weighing about 20 g). LD50 values of the compounds of the invention were calculated by the probit method based on mortality for 7 days after drug administration.

Structure (SMILES)	Leak of Dye ([1]; 100 mg/kg)	inhibition in vivo at 100 mg/kg ([1]; 100 mg/kg)	Leak of Dye ([1]; 20 mg/kg)	inhibition in vivo at 20 mg/kg ([1]; 20 mg/kg)	Leak of Dye ([1]; 50 mg/kg)	inhibition in vivo at 50 mg/kg ([1]; 50 mg/kg)	LD50 at 168 h (Acute toxicity test; po)	LD50 at 168 h (Acute toxicity test; ip)
CCn1c(=O)c2cnc(N)nc2n(CC)c1=O [compound 17, 7-amino-1,3-diethyl-pyrimido[4,5-d]pyrimidine-2,4-dione]	2.4 ± 0.7 μg/site	77.6%						
Cn1c(=O)c2c(N)ncnc2n(C)c1=O [compound 9, 5-amino-1,3-dimethylpyrimido[4,5-d]pyrimidine-2,4-dione]	0.6 ± 0.1 μg/site	94.4%	5.9 ± 1.2 μg/site	44.9%				
Cn1c(=O)c2cnc(N)nc2n(-c2ccccc2)c1=O [compound 7, 7-amino-1-phenyl-3-methylpyrimido[4,5-d]pyrimidine-2,4-dione]	5.4 ± 0.7 μg/site	49.5%						
Cn1c(=O)c2cnc(-c3ccccc3)nc2n(C)c1=O [compound 2, 7-phenyl-1,3-dimethylpyrimido[4,5-d]pyrimidine-2,4-dione]					8.2 ± 0.9 μg/site	23.4%		
CNc1ncnc2c1c(=O)n(C)c(=O)n2C [compound 16, 5-methylamino-1,3-dimethylpyrimido[4,5-d]pyrimidine-2,4-dione]	1.7 ± 0.6 μg/site	84.1%						
Cc1nc(N)c2c(=O)n(C)c(=O)n(C)c2n1 [compound 12, 5-amino-1,3,7-trimethylpyrimido[4,5-d]pyrimidine-2,4-dione]	1.0 ± 0.3 μg/site	90.7%					707 mg/kg	
Cc1ncc2c(=O)n(C)c(=O)n(C)c2n1 [compound 3, 1,3,7-trimethylpyrimido[4,5-d]pyrimidine-2,4-dione]					4.2 ± 0.5 μg/site	60.7%	690 mg/kg	
Cn1c(=O)c2cnc(C(F)(F)F)nc2n(C)c1=O [compound 4, 7-trifluoromethyl-1,3-dimethylpyrimido[4,5-d]pyrimidine-2,4-dione]					6.6 ± 1.1 μg/site	38.3%		
CC(C)Cn1c(=O)n(C)c(=O)c2cnc(N)nc21 [compound 18, 7-amino-1-iso-butyl 3-methylpyrimido[4,5-d]pyrimidine-2,4-dione]	4.0 ± 0.6 μg/site	62.6%						
Cn1c(=O)c2c(N)nc(N)nc2n(C)c1=O [compound 14, 5,7-diamino-1,3-dimethylpyrimido[4,5-d]pyrimidine-2,4-dione]	1.9 ± 0.5 μg/site	82.2%						
Cn1c(=O)c2[nH]cnc2n(C)c1=O [Theophylline, reference compound]			3.5 ± 1.3 μg/site	67.3%				
CC(C)Cn1c(=O)n(C)c(=O)c2c(N)ncnc21 [compound 11, 5-amino-1-iso-butyl-3-methylpyrimido[4,5-d]pyrimidine-2,4-dione]	2.9 ± 0.8 μg/site	72.9%						
CCn1c(=O)c2c(N)ncnc2n(CC)c1=O [compound 10, 5-amino-1,3-diethylpyrimido[4,5-d]pyrimidine-2,4-dione]	1.6 ± 0.4 μg/site	85%					748 mg/kg	
Cn1c(=O)c2cncnc2n(C)c1=O [compound 5, 1,3-dimethylpyrimido[4,5-d]pyrimidine-2,4-dione]					4.1 ± 0.8 μg/site	61.7%		
Cn1c(=O)c2cnc(N)nc2n(C)c1=O [compound 6, 7-amino-1,3-dimethylpyrimido[4,5-d]pyrimidine-2,4-dione]	0.7 ± 0.2 μg/site	93.5%	5.0 ± 0.9 μg/site	53.3%	2.3 ± 0.7 μg/site	78.5%	940 mg/kg	140 mg/kg
CNc1ncc2c(=O)n(C)c(=O)n(C)c2n1 [compound 8, 7-methylamino-1,3-dimethylpyrimido[4,5-d]pyrimidine-2,4-dione]			7.6 ± 1.6 μg/site	29%	2.8 ± 0.7 μg/site	73.8%		
